Measurements taken from patent US9913843B2, “Protein kinase C inhibitors and uses thereof” (Rigel Pharmaceuticals, Inc., priority 2012, dated 2018).
Read-outs that look alike come from different tables or passages of the source.

Test system: PKC mediated IL-2 production in human primary T cells
Assay: IL-2 ELISA, human primary T cell, anti CD3+CD28+ (whole cell functional assay for PKC mediated IL-2 production)
Assay type: cell-based
How it was run: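 Primary human T cells (PBMC-derived, expanded on plate-bound anti-CD3/CD28 with IL-2, then IL-2-washed) were pre-incubated 1 h at 37 °C with compound, then stimulated on 1 μg/ml anti-CD3 plus 5 μg/ml anti-CD28. After 24 h at 37 °C, secreted IL-2 was measured by ELISA; counter assay used 0.5 ng/ml PMA plus 0.1 μM ionomycin (final).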

[1] = 24 h, human primary T cells stimulated with anti-CD3 + anti-CD28, IL-2 by ELISA, read-out: IC50 for blocking IL-2 production
[2] = human primary T cells stimulated with anti-CD3 + anti-CD28, 24 h, IL-2 by ELISA, 8 pt, read-out: IL2 ELISA, Human primary T cell, anti-CD3 + CD28, 8 pt (IC50)

IC50 [1] [µM] | IC50 [2] [µM] | SMILES
< 30 | 0.824 | Cc1nnnn1-c1ccc(F)c(Nc2ncc(C(N)=O)c(NC[C@@H]3CCCN4CCCC[C@H]34)n2)c1 [Compound 127, 4-(((1S,9aR)-octahydro-1H-quinolizin-1-yl)methylamino)-2-(2-fluoro-5-(5-methyl-1H-tetrazol-1-yl)phenylamino)pyrimidine-5-carboxamide]
< 30 | 0.0493 | OCCOc1ccc(Nc2ncc(F)c(NC[C@@H]3CCCN4CCCC[C@H]34)n2)cc1-n1cnnn1 [Compound 138, 2-(4-((5-fluoro-4-((((1S,9aR)-octahydro-2H-quinolizin-1-yl)methyl)amino)pyrimidin-2-yl)amino)-2-(1H-tetrazol-1-yl)phenoxy)ethan-1-ol]
< 30 | 1.36 | Cc1ccc(Nc2ncc(C)c(NC[C@@H]3CCCN4CCCC[C@H]34)n2)cc1-n1cnnn1 [Compound 60, N4-(((1S,9aR)-octahydro-1H-quinolizin-1-yl)methyl)-5-methyl-N2-(4-methyl-3-(1H-tetrazol-1-yl)phenyl)pyrimidine-2,4-diamine]
< 30 | 3.45 | O=S1(=O)CCCN1c1cc(Nc2ncc(F)c(NC[C@@H]3CCCN4CCCC[C@H]34)n2)ccc1F [Compound 24, N2-[3-(1,1-dioxo-isothiazolidin-2-yl)-4-fluoro-phenyl]-5-fluoro-N4-(((1S,9aR)-octahydro-1H-quinolizin-1-yl)methyl)-pyrimidine-2,4-diamine]
< 30 | 0.444 | Cn1nnn(-c2cc(Nc3ncc(C#N)c(NC[C@@H]4CCCN5CCCC[C@H]45)n3)c(F)cc2OCC2(C)COC2)c1=O [Compound 130, 2-((2-fluoro-5-(4-methyl-5-oxo-4,5-dihydro-1H-tetrazol-1-yl)-4-((3-methyloxetan-3-yl)methoxy)phenyl)amino)-4-((((1S,9aR)-octahydro-2H-quinolizin-1-yl)methyl)amino)pyrimidine-5-carbonitrile]
< 30 | 0.0175 | OCCOc1ccc(Nc2ncc(Cl)c(NC[C@@H]3CCCN4CCCC[C@H]34)n2)cc1-n1cnnn1 [Compound 139, 2-(4-((5-chloro-4-((((1S,9aR)-octahydro-2H-quinolizin-1-yl)methyl)amino)pyrimidin-2-yl)amino)-2-(1H-tetrazol-1-yl)phenoxy)ethan-1-ol]
< 30 | 0.95 | Cc1cnc(Nc2ccc(C3CC3)c(C#N)c2)nc1NC[C@@H]1CCCN2CCCC[C@H]12 [Compound 68, 5-(4-(((1S,9aR)-octahydro-1H-quinolizin-1-yl)methylamino)-5-methylpyrimidin-2-ylamino)-2-cyclopropylbenzonitrile]
< 30 | 2.48 | COc1cnc(Nc2ccc(C)c(C#N)c2)nc1NC[C@@H]1CCCN2CCCC[C@H]12 [Compound 80, 5-(4-(((1S,9aR)-octahydro-1H-quinolizin-1-yl)methylamino)-5-methoxypyrimidin-2-ylamino)-2-methylbenzonitrile]
< 30 | 0.195 | Cc1ccc(Nc2ncc(F)c(NC[C@@H]3CCCN4CCCC[C@H]34)n2)cc1C#N [Compound 9, 5-(4-(((1S,9aR)-octahydro-1H-quinolizin-1-yl)methylamino)-5-fluoropyrimidin-2-ylamino)-2-methylbenzonitrile]
< 30 | 1.24 | Cn1nnn(-c2cc(Nc3ncc(C#N)c(NC[C@@H]4CCCN5CCCC[C@H]45)n3)c(F)cc2OCC(O)CO)c1=O (stereo partly drawn) [Compound 132, 2-((4-(2,3-dihydroxypropoxy)-2-fluoro-5-(4-methyl-5-oxo-4,5-dihydro-1H-tetrazol-1-yl)phenyl)amino)-4-((((1S,9aR)-octahydro-2H-quinolizin-1-yl)methyl)amino)pyrimidine-5-carbonitrile]
< 30 | 9.82 | COc1ccc(Nc2ncc(N(C)C)c(NC[C@@H]3CCCN4CCCC[C@H]34)n2)cc1-n1nnnc1C [Compound 90, N4-(((1S,9aR)-octahydro-1H-quinolizin-1-yl)methyl)-N2-(4-methoxy-3-(5-methyl-1H-tetrazol-1-yl)phenyl)-N5,N5-dimethylpyrimidine-2,4,5-triamine]
< 30 | 12.5 | COc1cc(Nc2ncc(C(F)(F)F)c(NC[C@@H]3CCCN4CCCC[C@H]34)n2)cc(OC)c1 [Compound 111, 5-(trifluoromethyl)-N4-(((1S,9aR)-octahydro-1H-quinolizin-1-yl)methyl)-N2-(3,5-dimethoxyphenyl)pyrimidine-2,4-diamine]
< 30 | 0.418 | N#Cc1cccc(Nc2ncc(Cl)c(NC[C@@H]3CCCN4CCCC[C@H]34)n2)c1 [Compound 39, 3-(4-(((1S,9aR)-octahydro-1H-quinolizin-1-yl)methylamino)-5-chloropyrimidin-2-ylamino)benzonitrile]
< 30 | 1.1 | Cc1ccc(Nc2nccc(NC[C@@H]3CCCN4CCCC[C@H]34)n2)cc1C#N [Compound 54, 5-(4-(((1S,9aR)-octahydro-1H-quinolizin-1-yl)methylamino)pyrimidin-2-ylamino)-2-methylbenzonitrile]
< 30 | 14.6 | Cc1nnnn1-c1ccc(F)c(Nc2ncc(N(C)C)c(NC[C@@H]3CCCN4CCCC[C@H]34)n2)c1 [Compound 89, N2-(2-fluoro-5-(5-methyl-1H-tetrazol-1-yl)phenyl)-N4-(((1S,9aR)-octahydro-1H-quinolizin-1-yl)methyl)-N5,N5-dimethylpyrimidine-2,4,5-triamine]
< 30 | 0.136 | Cn1nnn(-c2cc(Nc3ncc(Cl)c(NC[C@@H]4CCCN5CCCC[C@H]45)n3)c(F)cc2OCC(C)(C)O)c1=O [Compound 155, 1-(5-((5-chloro-4-((((1S,9aR)-octahydro-2H-quinolizin-1-yl)methyl)amino)pyrimidin-2-yl)amino)-4-fluoro-2-(2-hydroxy-2-methylpropoxy)phenyl)-4-methyl-1,4-dihydro-5H-tetrazol-5-one]
< 30 | 1.98 | Cc1cnc(Nc2cc(-n3nnn(C)c3=O)c(C3CC3)cc2F)nc1NC[C@@H]1CCCN2CCCC[C@H]12 [Compound 61, 1-(5-(4-(((1S,9aR)-octahydro-1H-quinolizin-1-yl)methylamino)-5-methylpyrimidin-2-ylamino)-2-cyclopropyl-4-fluorophenyl)-4-methyl-1H-tetrazol-5(4H)-one]
< 30 | 0.159 | Fc1cc(C2CC2)c(-n2cnnn2)cc1Nc1ncc(Cl)c(NC[C@@H]2CCCN3CCCC[C@H]23)n1 [Compound 32, 5-chloro-N2-(4-cyclopropyl-2-fluoro-5-(1H-tetrazol-1-yl)phenyl)-N4-(((1S,9aR)-octahydro-1H-quinolizin-1-yl)methyl)pyrimidine-2,4-diamine]
< 30 | 1.31 | COc1cnc(Nc2ccc(C3CC3)c(C#N)c2)nc1NC[C@@H]1CCCN2CCCC[C@H]12 [Compound 81, 5-(4-(((1S,9aR)-octahydro-1H-quinolizin-1-yl)methylamino)-5-methoxypyrimidin-2-ylamino)-2-cyclopropylbenzonitrile]
< 30 | 0.672 | Fc1cc(Nc2ncc(F)c(NC[C@@H]3CCCN4CCCC[C@H]34)n2)cc(S(F)(F)(F)(F)F)c1 [Compound 30, 5-fluoro-N2-(3-pentafluorosulfanyl-5-fluoro-phenyl)-N4-(((1S,9aR)-octahydro-1H-quinolizin-1-yl)methyl)pyrimidine-2,4-diamine]
< 30 | 0.0728 | COc1cc(Nc2ncc(C)c(NC[C@@H]3CCCN4CCCC[C@H]34)n2)cc(-n2nnnc2C)c1 [Compound 65, N4-(((1S,9aR)-octahydro-1H-quinolizin-1-yl)methyl)-N2-(3-methoxy-5-(5-methyl-1H-tetrazol-1-yl)phenyl)-5-methylpyrimidine-2,4-diamine]
< 30 | 1.27 | COc1cnc(Nc2cc(-n3cnnn3)c(C3CC3)cc2F)nc1NC[C@@H]1CCCN2CCCC[C@H]12 [Compound 72, N2-(4-cyclopropyl-2-fluoro-5-(1H-tetrazol-1-yl)phenyl)-N4-(((1S,9aR)-octahydro-1H-quinolizin-1-yl)methyl)-5-methoxypyrimidine-2,4-diamine]
< 30 | 0.405 | COc1cc(Nc2ncc(F)c(NC[C@@H]3CCCN4CCCC[C@H]34)n2)cc(-n2nnn(C)c2=O)c1 [Compound 17, 1-(3-(4-(((1S,9aR)-octahydro-1H-quinolizin-1-yl)methylamino)-5-fluoropyrimidin-2-ylamino)-5-methoxyphenyl)-4-methyl-1H-tetrazol-5(4H)-one]
< 30 | 1.98 | Cn1nnn(-c2cc(Nc3ncc(Cl)c(NC[C@@H]4CCCN5CCCC[C@H]45)n3)c(F)cc2O)c1=O [Compound 146, 1-(5-((5-chloro-4-((((1S,9aR)-octahydro-2H-quinolizin-1-yl)methyl)amino)pyrimidin-2-yl)amino)-4-fluoro-2-hydroxyphenyl)-4-methyl-1,4-dihydro-5H-tetrazol-5-one]
< 30 | 0.554 | Fc1cnc(Nc2ccc(N3CCOCC3)c(C(F)(F)F)c2)nc1NC[C@@H]1CCCN2CCCC[C@H]12 [Compound 19, 5-fluoro-N2-(3-(trifluoromethyl)-4-morpholinophenyl)-N4-(((1S,9aR)-octahydro-1H-quinolizin-1-yl)methyl)pyrimidine-2,4-diamine]
< 30 | 1.53 | COc1cc(Nc2ncc(C)c(NC[C@@H]3CCCN4CCCC[C@H]34)n2)cc(OC)c1 [Compound 70, N4-(((1S,9aR)-octahydro-1H-quinolizin-1-yl)methyl)-N2-(3,5-dimethoxyphenyl)-5-methylpyrimidine-2,4-diamine]
